Among the test systems are TK-10 renal; SK-MEL-28 melanoma; RXF 393 renal; ACHN renal; HCT-116 colon; MALME-3M melanoma; DU-145 prostate; HL-60(TB) leukemia; A498 renal; COLO 205 colon.
Common to all, as to test: NCI anticancer screen, dose series, 48 h

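1) Cells in 96-well plates. 2) Compound, 48 h, 5 concentrations. 3) Linear interpolation between surrounding doses. 4) Unreached endpoint = highest concentration. At the GI50, growth is halved. TGI denotes the concentration required for complete inhibition of growth.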

Turning to `CN(C)c1ncnc2c1ncn2CCn1cnc2c(N(C)C)ncnc21`, the TGI in the test with TK-10 renal, in the test with SK-MEL-28 melanoma, in the test on RXF 393 renal, with ACHN renal, in the test on HCT-116 colon and in the test with MALME-3M melanoma was > 100 µM throughout. For the same compound, the TGI with DU-145 prostate, with HL-60(TB) leukemia, with A498 renal and with COLO 205 colon was > 100 µM throughout.
Regarding `CC(C(=O)O)c1cccc(Oc2ccccc2)c1` (stereo not drawn), the GI50 in the test with TK-10 renal, in the test on SK-MEL-28 melanoma, in the test on RXF 393 renal, with ACHN renal, in the test on HCT-116 colon and in the test with MALME-3M melanoma was > 100 µM throughout. The GI50 in the test with DU-145 prostate, in the test with HL-60(TB) leukemia, in the test on A498 renal and with COLO 205 colon was > 100 µM throughout. Also, the TGI in the test on TK-10 renal, in the test with SK-MEL-28 melanoma, in the test with RXF 393 renal, with ACHN renal, with HCT-116 colon and in the test on MALME-3M melanoma was > 100 µM in each case. For the same compound, the TGI with DU-145 prostate, with HL-60(TB) leukemia, in the test with A498 renal and in the test on COLO 205 colon was > 100 µM each time.
Turning to `COc1ccc(-c2nsc3c2NC(=O)CC3c2cccc(OC)c2)cc1` (stereo not drawn), the GI50 is 10.7 µM in the test with SK-MEL-28 melanoma; 2.29 µM in the test with RXF 393 renal; 4.87 µM in the test on ACHN renal; 0.531 µM in the test with HCT-116 colon; 2.32 µM with MALME-3M melanoma; 2.59 µM in the test on DU-145 prostate. For the same compound, the GI50 in the test with HL-60(TB) leukemia is 1.35 µM; with A498 renal it was 0.408 µM; with COLO 205 colon it was 0.801 µM. For the same compound, the TGI in the test on SK-MEL-28 melanoma is > 100 µM; in the test on RXF 393 renal, 8.95 µM; in the test with ACHN renal it was > 100 µM; in the test on HCT-116 colon, > 100 µM; with MALME-3M melanoma it was 66.1 µM; in the test on DU-145 prostate, 19.1 µM. The TGI in the test on HL-60(TB) leukemia worked out at 17.4 µM; with A498 renal, 5.02 µM; in the test with COLO 205 colon, 6.92 µM.
As to `O=C1CCC/C=C\C[C@H]2C=CC(=O)/C2=C/C[C@H](C/C=C\CC(F)(F)F)O1`, the GI50 in the test with TK-10 renal is 0.618 µM; in the test on SK-MEL-28 melanoma, 0.571 µM; in the test with RXF 393 renal, 0.424 µM; in the test on ACHN renal it was 0.333 µM; in the test on HCT-116 colon it was 0.311 µM; in the test on MALME-3M melanoma it was 0.587 µM. The GI50 in the test with DU-145 prostate is 0.607 µM; in the test with HL-60(TB) leukemia it was 0.495 µM; in the test on A498 renal, 2.56 µM; in the test on COLO 205 colon it was 0.368 µM. For the same compound, the TGI in the test with TK-10 renal was 2.17 µM; with SK-MEL-28 melanoma, 2.25 µM; in the test on RXF 393 renal, 1.4 µM; with ACHN renal it was 0.629 µM; with HCT-116 colon, 0.614 µM; in the test on MALME-3M melanoma, 2.29 µM. In addition, the TGI with DU-145 prostate amounted to 2.33 µM; with HL-60(TB) leukemia it was 2.58 µM; with A498 renal it was 4.89 µM; in the test with COLO 205 colon, 0.726 µM.
`S=c1[nH]c2c(Cl)c(Cl)c(Cl)c(Cl)c2[nH]1`: the TGI is 55.4 µM with TK-10 renal; 35.4 µM with RXF 393 renal; 40.7 µM in the test with ACHN renal; 46.8 µM in the test on HCT-116 colon; 38.5 µM in the test with MALME-3M melanoma; > 100 µM in the test with DU-145 prostate. Besides, the TGI came out at 13 µM with HL-60(TB) leukemia, 46.5 µM with A498 renal and 32.3 µM in the test with COLO 205 colon.
On to `O=C(/C=C/C=C/c1ccccc1)c1ccccc1`, for which the TGI with TK-10 renal was 42.3 µM; with SK-MEL-28 melanoma, 31.3 µM; in the test on RXF 393 renal it was 37.3 µM; in the test with HCT-116 colon, 31.4 µM; in the test on MALME-3M melanoma, 21.6 µM; with DU-145 prostate, 40.1 µM. The TGI amounted to 28.6 µM with HL-60(TB) leukemia, 31.5 µM in the test on A498 renal and 31.5 µM with COLO 205 colon.
Take `O=C1c2cccc3cccc(c23)C(=O)N1CCCCCN1CCN(CCCCCOc2ccc(-c3nc4ccc(N5CCOCC5)cc4[nH]3)cc2)CC1`: the GI50 was 8.24 µM with TK-10 renal; 13 µM with SK-MEL-28 melanoma; > 35.7 µM in the test with ACHN renal; 5.06 µM in the test with HCT-116 colon; 17.7 µM in the test on MALME-3M melanoma; 14.7 µM in the test with DU-145 prostate. Also, the GI50 in the test with HL-60(TB) leukemia was 0.372 µM; in the test with A498 renal it was > 74.9 µM; in the test on COLO 205 colon, 13.1 µM. For the same compound, the TGI in the test with TK-10 renal was 14.8 µM; in the test with SK-MEL-28 melanoma, 25.7 µM; in the test on ACHN renal, > 56.1 µM; with HCT-116 colon, > 100 µM; in the test on MALME-3M melanoma it was 40 µM; in the test with DU-145 prostate, 27.8 µM. For the same compound, the TGI in the test with HL-60(TB) leukemia was > 19.9 µM; in the test with A498 renal, > 100 µM; in the test on COLO 205 colon it was 28.7 µM.
Turning to `Cn1cc(-c2csc(-c3c[nH]c4ccc(Br)cc34)n2)c2cnccc21`, the GI50 with TK-10 renal was 1.97 µM; in the test with SK-MEL-28 melanoma it was 1.7 µM; in the test on RXF 393 renal it was 1.47 µM; in the test with HCT-116 colon it was 1.56 µM; in the test with MALME-3M melanoma, 2.23 µM; in the test with DU-145 prostate it was 2.25 µM. Moreover, the GI50 in the test with HL-60(TB) leukemia was 2.11 µM; with A498 renal, 12.6 µM. The TGI in the test with TK-10 renal was determined as 5.84 µM; in the test on SK-MEL-28 melanoma it was 3.31 µM; in the test with RXF 393 renal, 2.96 µM; in the test on HCT-116 colon, 3.11 µM; in the test on MALME-3M melanoma, 3.96 µM; with DU-145 prostate it was 5.62 µM. Further, the TGI in the test on HL-60(TB) leukemia is 7.91 µM; in the test on A498 renal it was > 100 µM.
Regarding `CC(C)=CCc1cc(O)cc2c1OC(C=C(C)C)C1=C2C(=O)C2=C(C1=O)S(=O)(=O)CCN2` (stereo not drawn), the GI50 was > 16.7 µM in the test on TK-10 renal; 3.12 µM in the test with SK-MEL-28 melanoma; 3.02 µM with RXF 393 renal; 6.14 µM with ACHN renal; 2.97 µM in the test with HCT-116 colon; 1.69 µM in the test on MALME-3M melanoma. Also, the GI50 in the test on DU-145 prostate is 2.93 µM; with A498 renal it was 9.61 µM; in the test with COLO 205 colon it was 5.42 µM. In addition, the TGI with TK-10 renal is > 16.7 µM; in the test on SK-MEL-28 melanoma it was 6.04 µM; in the test with RXF 393 renal it was 12.5 µM; with ACHN renal, > 16.7 µM; with HCT-116 colon it was 7.14 µM; in the test with MALME-3M melanoma, 3.64 µM. Besides, the TGI with DU-145 prostate is 5.37 µM; in the test with A498 renal, > 16.7 µM; with COLO 205 colon, > 16.7 µM.

Source of the values: PubChem BioAssay (NCI).
